Laboratory results: ChEMBL document CHEMBL1125129, “Design of potent and selective linear antagonists of vasopressor (V1-receptor) responses to vasopressin” (J Med Chem, 1990)

Tests used:
[1] = biological target: Vasopressin V2 receptor (Rattus norvegicus) (UniProt Q00788); experiment: Effective dose was determined for Vasopressin V2 receptor antagonistic activity in vivo in anesthetized rats; type: functional, organism-based
[2] = biological target: Vasopressin V2 receptor (Rattus norvegicus) (UniProt Q00788); experiment: Selectivity ratio of antidiuretic Vasopressin V2 receptor ED /[…] receptor ED; details: Urine
[3] = biological target: Vasopressin V1 receptor (Rattus norvegicus) (UniProt P48974+P30560); experiment: Effective dose was determined for Vasopressin V1 receptor antagonistic activity in vivo in anesthetized rats; type: functional, organism-based
Vasopressin V2 receptor = Vasopressin V2 receptor (Rattus norvegicus, UniProt Q00788); experiment: Vasopressin V2 receptor antagonistic activity in vivo in anesthetized rats; type: functional, organism-based; details: for Kb: read-out: pA2 (converted)
Vasopressin V1 receptor = Vasopressin V1 receptor (Rattus norvegicus, UniProt P48974+P30560); experiment: pA2 value was determined for Vasopressin V1 receptor antagonistic activity in vivo in anesthetized rats; type: functional, organism-based

Sequence of Vasopressin V1 receptor (Rattus norvegicus) (P30560 whole entry, looked up): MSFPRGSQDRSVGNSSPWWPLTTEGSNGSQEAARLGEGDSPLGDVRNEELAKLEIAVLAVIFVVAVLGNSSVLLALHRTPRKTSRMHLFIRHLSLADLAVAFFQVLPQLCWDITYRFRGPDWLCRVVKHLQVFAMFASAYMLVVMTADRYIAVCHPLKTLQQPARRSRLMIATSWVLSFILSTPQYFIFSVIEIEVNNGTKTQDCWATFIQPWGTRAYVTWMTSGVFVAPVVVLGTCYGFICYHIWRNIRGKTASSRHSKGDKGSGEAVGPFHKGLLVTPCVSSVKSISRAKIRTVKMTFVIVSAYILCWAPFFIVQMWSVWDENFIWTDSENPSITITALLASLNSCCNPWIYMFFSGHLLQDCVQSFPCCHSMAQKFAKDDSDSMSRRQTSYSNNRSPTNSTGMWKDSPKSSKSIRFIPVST
Sequence of Vasopressin V1 receptor (Rattus norvegicus) (P48974 whole entry, looked up): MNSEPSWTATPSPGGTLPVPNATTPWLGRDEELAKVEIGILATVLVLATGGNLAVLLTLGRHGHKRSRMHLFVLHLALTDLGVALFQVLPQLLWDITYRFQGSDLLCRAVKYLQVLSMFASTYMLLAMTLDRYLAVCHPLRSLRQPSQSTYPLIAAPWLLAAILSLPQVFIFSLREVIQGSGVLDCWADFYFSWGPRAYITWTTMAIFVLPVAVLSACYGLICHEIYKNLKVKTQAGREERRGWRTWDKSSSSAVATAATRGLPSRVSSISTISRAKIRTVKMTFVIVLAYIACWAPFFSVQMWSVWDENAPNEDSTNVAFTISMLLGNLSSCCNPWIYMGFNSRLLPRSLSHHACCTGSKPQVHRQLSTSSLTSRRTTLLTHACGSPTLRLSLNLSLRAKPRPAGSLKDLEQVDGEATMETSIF
Sequence of Vasopressin V2 receptor (Rattus norvegicus) (Q00788 whole entry): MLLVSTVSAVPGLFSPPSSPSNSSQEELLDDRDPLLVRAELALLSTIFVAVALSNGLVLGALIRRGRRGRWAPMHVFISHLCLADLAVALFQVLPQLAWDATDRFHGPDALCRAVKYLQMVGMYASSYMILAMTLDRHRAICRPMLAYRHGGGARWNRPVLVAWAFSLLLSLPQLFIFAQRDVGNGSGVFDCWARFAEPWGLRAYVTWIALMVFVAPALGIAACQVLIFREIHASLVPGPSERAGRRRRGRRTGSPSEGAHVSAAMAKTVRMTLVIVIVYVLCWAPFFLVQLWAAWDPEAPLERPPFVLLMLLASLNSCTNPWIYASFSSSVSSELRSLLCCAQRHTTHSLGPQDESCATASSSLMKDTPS
Sequence of Vasopressin V2 receptor (Q00788 whole entry): as above

| Compound | Effective dose [1] | Ratio [2] | Effective dose [3] | pA2 (Vasopressin V2 receptor) | pA2 (Vasopressin V1 receptor) | Kb (Vasopressin V2 receptor) |
| --- | --- | --- | --- | --- | --- | --- |
| CCOc1ccc(C[C@@H](NC(=O)Cc2ccccc2)C(=O)N[C@@H](Cc2ccccc2)C(=O)N[C@H](C(=O)N[C@@H](CC(N)=O)C(=O)N[C@@H](CCCN)C(=O)N2CCC[C@@H]2C(=O)N[C@@H](CCCN=C(N)N)C(=O)N[C@@H](CCCN=C(N)N)C(N)=O)C(C)C)cc1 | 4 nM/kg | 14 | 0.29 nM/kg |  |  |  |
| CCOc1ccc(C[C@@H](NC(=O)CC(C)(C)C)C(=O)N[C@@H](Cc2ccccc2)C(=O)N[C@H](C(=O)N[C@@H](CC(N)=O)C(=O)N[C@@H](CCCCN)C(=O)N2CCC[C@@H]2C(=O)N[C@@H](CCCN=C(N)N)C(N)=O)C(C)C)cc1 | > 7 nM/kg | 41 | 0.17 nM/kg |  |  |  |
| COc1ccc(C[C@@H](NC(=O)Cc2ccccc2)C(=O)N[C@@H](Cc2ccccc2)C(=O)N[C@@H](CCC(N)=O)C(=O)N[C@@H](CC(N)=O)C(=O)N[C@@H](CCCCN)C(=O)N2CCC[C@@H]2C(=O)N[C@@H](CCCN=C(N)N)C(N)=O)cc1 | > 24 nM/kg | > 290 | 0.083 nM/kg |  |  |  |
| CCOc1ccc(C[C@@H](NC(=O)CC23CC4CC(CC(C4)C2)C3)C(=O)N[C@@H](Cc2ccccc2)C(=O)N[C@H](C(=O)N[C@@H](CC(N)=O)C(=O)N[C@@H](CCCCN)C(=O)N2CCC[C@@H]2C(=O)N[C@@H](CCCN=C(N)N)C(=O)N[C@@H](CCCN=C(N)N)C(N)=O)C(C)C)cc1 | 1.4 nM/kg | 2.8 | 0.5 nM/kg |  |  |  |
| CCOc1ccc(C[C@@H](NC(=O)CC23C[C@H]4C[C@@H](C2)C[C@@H](C3)C4)C(=O)N[C@@H](Cc2ccccc2)C(=O)N[C@H](C(=O)N[C@@H](CC(N)=O)C(=O)N[C@@H](CC)C(=O)N2CCC[C@H]2C(=O)N[C@@H](CCCN=C(N)N)C(N)=O)C(C)C)cc1 |  |  |  | 7.21 | 7.43 |  |
| CCOc1ccc(C[C@@H](NC(=O)CC23CC4CC(CC(C4)C2)C3)C(=O)N[C@@H](Cc2ccccc2)C(=O)N[C@H](C(=O)N[C@@H](CC(N)=O)C(=O)N[C@@H](CCCN)C(=O)N2CCC[C@@H]2C(=O)N[C@@H](CCCN=C(N)N)C(N)=O)C(C)C)cc1 | 1.1 nM/kg | 0.3 | 3.2 nM/kg |  |  |  |
| CCOc1ccc(C[C@@H](NC(=O)CC23C[C@H]4C[C@@H](C2)C[C@@H](C3)C4)C(=O)N[C@@H](Cc2ccccc2)C(=O)N[C@H](C(=O)N[C@@H](CC(N)=O)C(=O)NCCCC(=O)N2CCC[C@H]2C(=O)N[C@@H](CCCN=C(N)N)C(=O)N[C@@H](CCCN=C(N)N)C(N)=O)C(C)C)cc1 |  |  |  |  | 7.75 | 0.00776 µM |
| CCOc1ccc(C[C@@H](NC(=O)CC(C)(C)C)C(=O)N[C@@H](Cc2ccccc2)C(=O)N[C@H](C(=O)N[C@@H](CC(N)=O)C(=O)NCCCC(=O)N2CCC[C@@H]2C(=O)N[C@@H](CCCN=C(N)N)C(=O)N[C@@H](CCCN=C(N)N)C(N)=O)C(C)C)cc1 | 0.83 nM/kg | 1.2 | 0.71 nM/kg |  |  |  |
| COc1ccc(C[C@@H](NC(=O)Cc2ccccc2)C(=O)N[C@@H](Cc2ccccc2)C(=O)N[C@H](C(=O)N[C@@H](CC(N)=O)C(=O)N[C@@H](CCCCN)C(=O)N2CCC[C@@H]2C(=O)N[C@@H](CCCN=C(N)N)C(N)=O)C(C)C)cc1 | 6 nM/kg | 35 | 0.17 nM/kg |  |  |  |
| CCOc1ccc(C[C@@H](NC(=O)CC23CC4CC(CC(C4)C2)C3)C(=O)N[C@@H](Cc2ccccc2)C(=O)N[C@H](C(=O)N[C@@H](CC(N)=O)C(=O)N[C@@H](CCCCN)C(=O)N2CCC[C@@H]2C(=O)N[C@@H](CCCN=C(N)N)C(N)=O)C(C)C)cc1 | 1.1 nM/kg | 1.7 | 0.66 nM/kg |  |  |  |
| CCOc1ccc(C[C@@H](NC(=O)CC23C[C@H]4C[C@@H](C2)C[C@@H](C3)C4)C(=O)N[C@@H](Cc2ccccc2)C(=O)N[C@H](C(=O)N[C@@H](CC(N)=O)C(=O)NCCCC(=O)N2CCC[C@@H]2C(=O)N[C@@H](CCCN=C(N)N)C(=O)N[C@@H](CCCN=C(N)N)C(N)=O)C(C)C)cc1 | 0.53 nM/kg | 0.44 | 1.2 nM/kg |  |  |  |
| CCOc1ccc(C[C@H]2NC(=O)CC3(CCCCC3)SSC[C@H](C(=O)N3CCC[C@H]3C(=O)N[C@@H](CCCN=C(N)N)C(N)=O)NC(=O)[C@@H](CC(N)=O)NC(=O)[C@H](C(C)C)NC(=O)[C@@H](Cc3ccccc3)NC2=O)cc1 | 1.5 nM/kg | 3.3 | 0.45 nM/kg |  |  |  |
| NCCCC[C@H](NC(=O)[C@H](CC(N)=O)NC(=O)[C@H](CCC(N)=O)NC(=O)[C@H](Cc1ccccc1)NC(=O)[C@@H](Cc1ccc(O)cc1)NC(=O)Cc1ccccc1)C(=O)N1CCC[C@H]1C(=O)N[C@@H](CCCN=C(N)N)C(N)=O |  |  |  |  | 8.91 | 0.0631 µM |
| CCOc1ccc(C[C@@H](NC(=O)CC23CC4CC(CC(C4)C2)C3)C(=O)N[C@@H](Cc2ccccc2)C(=O)N[C@H](C(=O)N[C@@H](CC(N)=O)C(=O)N[C@@H](CCCN)C(=O)N2CCC[C@@H]2C(=O)N[C@@H](CCCN=C(N)N)C(=O)N[C@@H](CCCN=C(N)N)C(N)=O)C(C)C)cc1 | 0.9 nM/kg | 0.6 | 1.6 nM/kg |  |  |  |
| CCOc1ccc(C[C@@H](NC(=O)CC(C)(C)C)C(=O)N[C@@H](Cc2ccccc2)C(=O)N[C@H](C(=O)N[C@@H](CC(N)=O)C(=O)NCCCC(=O)N2CCC[C@H]2C(=O)N[C@@H](CCCN=C(N)N)C(=O)N[C@@H](CCCN=C(N)N)C(N)=O)C(C)C)cc1 |  |  |  |  | 7.99 | 0.0123 µM |
| CC(C)[C@H](NC(=O)[C@H](Cc1ccccc1)NC(=O)[C@@H](Cc1ccc(O)cc1)NC(=O)Cc1ccccc1)C(=O)N[C@@H](CC(N)=O)C(=O)N[C@@H](CCCN=C(N)N)C(=O)N1CCC[C@H]1C(=O)N[C@@H](CCCN=C(N)N)C(=O)N[C@@H](CCCN=C(N)N)C(N)=O |  |  |  |  | 8.62 |  |
| CCOc1ccc(C[C@@H](NC(=O)Cc2ccccc2)C(=O)N[C@@H](Cc2ccccc2)C(=O)N[C@H](C(=O)N[C@@H](CC(N)=O)C(=O)N[C@@H](CCCN)C(=O)N2CCC[C@H]2C(=O)N[C@@H](CCCN=C(N)N)C(=O)N[C@@H](CCCN=C(N)N)C(N)=O)C(C)C)cc1 |  |  |  |  | 8.39 | ~0.0589 µM |
| CCOc1ccc(C[C@@H](NC(=O)Cc2ccccc2)C(=O)N[C@@H](Cc2ccccc2)C(=O)N[C@@H](CCC(N)=O)C(=O)N[C@@H](CC(N)=O)C(=O)N[C@@H](CCCCN)C(=O)N2CCC[C@@H]2C(=O)N[C@@H](CCCN=C(N)N)C(N)=O)cc1 | 40 nM/kg | 570 | 0.07 nM/kg |  |  |  |
| CC(C)[C@H](NC(=O)[C@H](Cc1ccccc1)NC(=O)[C@@H](Cc1ccc(O)cc1)NC(=O)Cc1ccccc1)C(=O)N[C@@H](CC(N)=O)C(=O)N[C@@H](CCCN=C(N)N)C(=O)N1CCC[C@@H]1C(=O)N[C@@H](CCCN=C(N)N)C(=O)N[C@@H](CCCN=C(N)N)C(N)=O |  |  | 0.16 nM/kg |  |  |  |
| CC(C)[C@H](NC(=O)[C@H](Cc1ccccc1)NC(=O)[C@@H](Cc1ccc(O)cc1)NC(=O)CC12CC3CC(CC(C3)C1)C2)C(=O)N[C@@H](CC(N)=O)C(=O)N[C@@H](CCCN=C(N)N)C(=O)N1CCC[C@@H]1C(=O)N[C@@H](CCCN=C(N)N)C(=O)N[C@@H](CCCN=C(N)N)C(N)=O | 1.7 nM/kg | 4.3 |  |  |  |  |
| CCOc1ccc(C[C@@H](NC(=O)CC(C)(C)C)C(=O)N[C@@H](Cc2ccccc2)C(=O)N[C@@H](CCC(N)=O)C(=O)N[C@@H](CC(N)=O)C(=O)N[C@@H](CCCCN)C(=O)N2CCC[C@@H]2C(=O)N[C@@H](CCCN=C(N)N)C(N)=O)cc1 | > 410 nM/kg | > 1500 | 0.27 nM/kg |  |  |  |
| CCOc1ccc(C[C@@H](NC(=O)Cc2ccccc2)C(=O)N[C@@H](Cc2ccccc2)C(=O)N[C@H](C(=O)N[C@@H](CC(N)=O)C(=O)N[C@@H](CCCCN)C(=O)N2CCC[C@@H]2C(=O)N[C@@H](CCCN=C(N)N)C(=O)N[C@@H](CCCN=C(N)N)C(N)=O)C(C)C)cc1 | 9.8 nM/kg | 41 | 0.24 nM/kg |  |  |  |
| NCCCC[C@H](NC(=O)[C@H](CC(N)=O)NC(=O)[C@H](CCC(N)=O)NC(=O)[C@H](Cc1ccccc1)NC(=O)[C@@H](Cc1ccc(O)cc1)NC(=O)Cc1ccccc1)C(=O)N1CCC[C@@H]1C(=O)N[C@@H](CCCN=C(N)N)C(N)=O | 5 nM/kg | 59 | 0.085 nM/kg |  |  |  |
| CCOc1ccc(C[C@@H](NC(=O)CC23CC4CC(CC(C4)C2)C3)C(=O)N[C@@H](Cc2ccccc2)C(=O)N[C@H](C(=O)N[C@@H](CC(N)=O)C(=O)N[C@@H](CCCN=C(N)N)C(=O)N2CCC[C@@H]2C(=O)N[C@@H](CCCN=C(N)N)C(=O)N[C@@H](CCCN=C(N)N)C(N)=O)C(C)C)cc1 | 0.71 nM/kg | 1.4 | 0.5 nM/kg |  |  |  |
| CCOc1ccc(C[C@@H](NC(=O)Cc2ccccc2)C(=O)N[C@@H](Cc2ccccc2)C(=O)N[C@H](C(=O)N[C@@H](CC(N)=O)C(=O)NCCCC(=O)N2CCC[C@@H]2C(=O)N[C@@H](CCCN=C(N)N)C(=O)N[C@@H](CCCN=C(N)N)C(N)=O)C(C)C)cc1 | 0.69 nM/kg | 2.7 | 0.26 nM/kg |  |  |  |
| CCOc1ccc(C[C@@H](NC(=O)CC23CC4CC(CC(C4)C2)C3)C(=O)N[C@@H](Cc2ccccc2)C(=O)N[C@H](C(=O)N[C@@H](CC(N)=O)C(=O)N[C@@H](CCCN=C(N)N)C(=O)N2CCC[C@@H]2C(=O)N[C@@H](CCCN=C(N)N)C(N)=O)C(C)C)cc1 | 1.4 nM/kg | 2.1 | 0.66 nM/kg |  |  |  |
| CCOc1ccc(C[C@H]2NC(=O)CC3(CCCCC3)SSC[C@H](C(=O)N3CCC[C@H]3C(=O)N[C@@H](CCCN=C(N)N)C(=O)NCC(N)=O)NC(=O)[C@@H](CC(N)=O)NC(=O)[C@H](C(C)C)NC(=O)[C@@H](Cc3ccccc3)NC2=O)cc1 | 1.1 nM/kg |  | 0.45 nM/kg |  | 8.22 |  |
| CCOc1ccc(C[C@@H](NC(=O)Cc2ccccc2)C(=O)N[C@@H](Cc2ccccc2)C(=O)N[C@H](C(=O)N[C@@H](CC(N)=O)C(=O)N[C@@H](CCCCN)C(=O)N2CCC[C@@H]2C(=O)N[C@@H](CCCN=C(N)N)C(N)=O)C(C)C)cc1 | 2.9 nM/kg | 26 | 0.11 nM/kg |  |  |  |
